Experimental findings from patent US20200315176A1, “FUNGICIDAL COMPOSITIONS” (SYNGENTA PARTICIPATIONS AG, priority 2017, published 2020) are described below.

A value given as a limit tells only on which side of the number the result lay.

Data set [1] relates to Puccinia recondita f. sp. tritici. As to the kind of experiment: Example A1: fungicidal activity against Puccinia recondita f. sp. tritici / wheat / leaf disc preventative (brown rust). The conditions noted are these: foliar, 200 ppm in the applied formulation, wheat leaf segments, compared to untreated, read-out: disease control. Format: in vivo. As for the experimental part: (§1) Leaf disks or leaf segments of various plant species are cut from plants grown in a greenhouse. The cut leaf disks or segments are placed in multiwell plates (24-well format) onto water agar. The leaf disks are sprayed with a test solution before (preventative) or after (curative) inoculation. Compounds to be tested are prepared as DMSO solutions (max. 10 mg/mL) which are diluted to the appropriate concentration with 0.025% Tween20 just before spraying. The inoculated leaf disks or segments are incubated under defined conditions (temperature, relative humidity, light, etc.) according to the respective test system. A single evaluation of disease level is carried out 3 to 14 days after inoculation, depending on the pathosystem. Percent disease control relative to the untreated check leaf disks or segments is then calculated.
Wheat leaf segments cv. Kanzler were placed on agar in multiwell plates (24-well format) and sprayed with the formulated test compound diluted in water. The leaf disks were inoculated with a spore suspension of the fungus 1 day after application. The inoculated leaf segments were incubated at 19° C. and 75% relative humidity (rh) under a light regime of 12 hours light/12 hours darkness in a climate cabinet and the activity of a compound was assessed as percent disease control compared to untreated when an appropriate level of disease damage appears in untreated check leaf segments (7 to 9 days after application).

Data set [2] shares this test system. As to the kind of experiment: Example A2: fungicidal activity against Puccinia recondita f. sp. tritici / wheat / leaf disc curative (brown rust). The format is in vivo. Conditions: foliar, 24 h, 200 ppm in the applied formulation, curative (applied 1 day after inoculation), wheat leaf segments, read-out: disease control. How it is done: as §1
Wheat leaf segments cv. Kanzler are placed on agar in multiwell plates (24-well format). The leaf segments are then inoculated with a spore suspension of the fungus. Plates were stored in darkness at 19° C. and 75% relative humidity. The formulated test compound diluted in water was applied 1 day after inoculation. The leaf segments were incubated at 19° C. and 75% relative humidity under a light regime of 12 hours light/12 hours darkness in a climate cabinet and the activity of a compound was assessed as percent disease control compared to untreated when an appropriate level of disease damage appears in untreated check leaf segments (6 to 8 days after application).

The next data set deals with Phakopsora pachrhizi. Briefly: Example A3: fungicidal activity against Phakopsora pachrhizi / soybean / leaf disc preventative (Asian soybean rust). The conditions noted are these: Phakopsora pachyrhizi, foliar, 200 ppm in the applied formulation, soybean leaf disks, read-out: disease control. Format: in vivo. How it is done:
as §1
Soybean leaf disks are placed on water agar in multiwell plates (24-well format) and sprayed with the formulated test compound diluted in water. One day after application leaf discs are inoculated by spraying a spore suspension on the lower leaf surface. After an incubation period in a climate cabinet of 24-36 hours in darkness at 20° C. and 75% rh leaf disc are kept at 20° C. with 12 h light/day and 75% rh. The activity of a compound is assessed as percent disease control compared to untreated when an appropriate level of disease damage appears in untreated check leaf disks (12 to 14 days after application).

The subject of data set [3] is Glomerella lagenarium (Colletotrichum lagenarium). Briefly: Example A4: fungicidal activity against Glomerella lagenarium (Colletotrichum lagenarium) liquid culture / cucumber / preventative (anthracnose). Conditions: Colletotrichum orbiculare, 20 ppm in the applied formulation, growth measured photometrically 3 to 4 days after application, read-out: disease control. Format: cell-based. How it is done: Mycelia fragments or conidia suspensions of a fungus prepared either freshly from liquid cultures of the fungus or from cryogenic storage, are directly mixed into nutrient broth. DMSO solutions of the test compound (max. 10 mg/mL) are diluted with 0.025% Tween20 by a factor of 50 and 10 μL of this solution is pipetted into a microtiter plate (96-well format). The nutrient broth containing the fungal spores/mycelia fragments is then added to give an end concentration of the tested compound. The test plates are incubated in the dark at 24° C. and 96% relative humidity. The inhibition of fungal growth is determined photometrically after 2 to 7 days, depending on the pathosystem, and percent antifungal activity relative to the untreated check is calculated. Conidia of the fungus from cryogenic storage are directly mixed into nutrient broth (PDB—potato dextrose broth). After placing a (DMSO) solution of test compound into a microtiter plate (96-well format), the nutrient broth containing the fungal spores is added.

Broadly, the melting point is the temperature, or range, at which the solid turns liquid.

Take `FC(F)(F)c1ncn(Cc2ccc(-c3noc(C(F)(F)F)n3)cc2)n1` [X.01, 5-(trifluoromethyl)-3-[4-[[3-(trifluoromethyl)-1,2,4-triazol-1-yl]methyl]phenyl]-1,2,4-oxadiazole]: the melting point is 68.2 to 70.1 °C. Besides, the pest or weed control at 200 ppm in data set [1] was at least 80%. Besides, in data set [2], the pest or weed control at 200 ppm was at least 80%. The pest or weed control at 200 ppm in the data set with Phakopsora pachrhizi is at least 80%. The inhibition of growth at 20 ppm in data set [3] was at least 80%.
For `N#Cc1ncnn1Cc1ccc(-c2noc(C(F)(F)F)n2)cc1` [X.02, 2-[[4-[5-(trifluoromethyl)-1,2,4-oxadiazol-3-yl]phenyl]methyl]-1,2,4-triazole-3-carbonitrile], the pest or weed control at 200 ppm (in data set [1]; in data set [2]; with Phakopsora pachrhizi) was at least 80% throughout. For the same compound, the inhibition of growth at 20 ppm in data set [3] is at least 80%.
Turning to `CCOC(=O)c1cnn(Cc2ccc(-c3noc(C(F)(F)F)n3)cc2)c1` [X.03, ethyl 1-[[4-[5-(trifluoromethyl)-1,2,4-oxadiazol-3-yl]phenyl]methyl]pyrazole-4-carboxylate], the pest or weed control at 200 ppm (in data set [1]; in data set [2]; in the data set with Phakopsora pachrhizi) was at least 80% in each case. In data set [3], the inhibition of growth at 20 ppm is at least 80%.
Turning to `O=C(NC1CC1)c1cnn(Cc2ccc(-c3noc(C(F)(F)F)n3)cc2)c1` [X.04, N-cyclopropyl-1-[[4-[5-(trifluoromethyl)-1,2,4-oxadiazol-3-yl]phenyl]methyl]pyrazole-4-carboxamide], the melting point was 189 to 194 °C. The pest or weed control at 200 ppm in data set [1] is at least 80%. Moreover, the pest or weed control at 200 ppm in data set [2] is at least 80%. The pest or weed control at 200 ppm with Phakopsora pachrhizi is at least 80%. For the same compound, the inhibition of growth at 20 ppm in data set [3] was at least 80%.
With `CN(C)C(=O)c1cnn(Cc2ccc(-c3noc(C(F)(F)F)n3)cc2)c1` [X.05, N,N-dimethyl-1-[[4-[5-(trifluoromethyl)-1,2,4-oxadiazol-3-yl]phenyl]methyl]pyrazole-4-carboxamide], the melting point was in the range of 124 to 129 °C. The pest or weed control at 200 ppm in data set [1] is at least 80%. The pest or weed control at 200 ppm in data set [2] was at least 80%. For the same compound, the pest or weed control at 200 ppm in the data set on Phakopsora pachrhizi was at least 80%. For the same compound, in data set [3], the inhibition of growth at 20 ppm was at least 80%.
`CNC(=O)c1cnn(Cc2ccc(-c3noc(C(F)(F)F)n3)cc2)c1` [X.06, N-methyl-1-[[4-[5-(trifluoromethyl)-1,2,4-oxadiazol-3-yl]phenyl]methyl]pyrazole-4-carboxamide] yielded a melting point of 156 to 161 °C. Besides, the pest or weed control at 200 ppm in data set [1] is at least 80%. In data set [2], the pest or weed control at 200 ppm is at least 80%. In addition, the pest or weed control at 200 ppm in the data set with Phakopsora pachrhizi was at least 80%. For the same compound, in data set [3], the inhibition of growth at 20 ppm is at least 80%.
With `CN(C)c1ncn(Cc2ccc(-c3noc(C(F)(F)F)n3)cc2)n1` [X.07, N,N-dimethyl-1-[[4-[5-(trifluoromethyl)-1,2,4-oxadiazol-3-yl]phenyl]methyl]-1,2,4-triazol-3-amine], the pest or weed control at 200 ppm (in data set [1]; in data set [2]; in the data set with Phakopsora pachrhizi) was at least 80% each time. In addition, the inhibition of growth at 20 ppm in data set [3] was at least 80%.
Turning to `CCSc1ncnn1Cc1ccc(-c2noc(C(F)(F)F)n2)cc1` [X.08, 3-[4-[(5-ethylsulfanyl-1,2,4-triazol-1-yl)methyl]phenyl]-5-(trifluoromethyl)-1,2,4-oxadiazole], the pest or weed control at 200 ppm (in data set [1]; in data set [2]; in the data set on Phakopsora pachrhizi) was at least 80% in each case. In addition, the inhibition of growth at 20 ppm in data set [3] was at least 80%.
As for `FC(F)(F)c1nc(-c2ccc(Cn3nnc4ncccc43)cc2)no1` [X.09, 3-[4-(triazolo[4,5-b]pyridin-1-ylmethyl)phenyl]-5-(trifluoromethyl)-1,2,4-oxadiazole], the pest or weed control at 200 ppm (in data set [1]; in data set [2]; with Phakopsora pachrhizi) was at least 80% throughout. Also, the inhibition of growth at 20 ppm in data set [3] is at least 80%.
As to `FC(F)(F)c1nc(-c2ccc(Cn3nc4cccnc4n3)cc2)no1` [X.10, 3-[4-(triazolo[4,5-b]pyridin-2-ylmethyl)phenyl]-5-(trifluoromethyl)-1,2,4-oxadiazole], the melting point was in the range of 121 to 122 °C. For the same compound, the pest or weed control at 200 ppm in data set [1] is at least 80%. Further, in data set [2], the pest or weed control at 200 ppm was at least 80%. For the same compound, the pest or weed control at 200 ppm in the data set on Phakopsora pachrhizi was at least 80%. Also, the inhibition of growth at 20 ppm in data set [3] was at least 80%.
As to `FC(F)(F)c1nc(-c2ccc(Cn3nnc4cccnc43)cc2)no1` [X.11, 3-[4-(triazolo[4,5-b]pyridin-3-ylmethyl)phenyl]-5-(trifluoromethyl)-1,2,4-oxadiazole], the melting point fell in the range of 143 to 144 °C. Further, in data set [1], the pest or weed control at 200 ppm was at least 80%. Moreover, in data set [2], the pest or weed control at 200 ppm is at least 80%. Further, in the data set on Phakopsora pachrhizi, the pest or weed control at 200 ppm is at least 80%. Moreover, the inhibition of growth at 20 ppm in data set [3] is at least 80%.
In turn, `COC(=O)c1cnn(Cc2ccc(-c3noc(C(F)(F)F)n3)cc2)c1` [X.12, methyl 1-[[4-[5-(trifluoromethyl)-1,2,4-oxadiazol-3-yl]phenyl]methyl]pyrazole-4-carboxylate] registered a melting point of 122 to 129 °C. Further, the pest or weed control at 200 ppm in data set [1] was at least 80%. Moreover, the pest or weed control at 200 ppm in data set [2] is at least 80%. The pest or weed control at 200 ppm in the data set on Phakopsora pachrhizi is at least 80%. The inhibition of growth at 20 ppm in data set [3] is at least 80%.
Consider `CCOC(=O)c1cnn(Cc2ccc(-c3noc(C(F)(F)F)n3)c(F)c2)c1` [X.13, ethyl 1-[[3-fluoro-4-[5-(trifluoromethyl)-1,2,4-oxadiazol-3-yl]phenyl]methyl]pyrazole-4-carboxylate], for which the melting point fell in the range of 131 to 135 °C. Moreover, the pest or weed control at 200 ppm in data set [1] was at least 80%. Further, in the data set with Phakopsora pachrhizi, the pest or weed control at 200 ppm was at least 80%. For the same compound, in data set [3], the inhibition of growth at 20 ppm is at least 80%.
`CCN(CC)C(=O)c1cnn(Cc2ccc(-c3noc(C(F)(F)F)n3)cc2)c1` [X.14, N,N-diethyl-1-[[4-[5-(trifluoromethyl)-1,2,4-oxadiazol-3-yl]phenyl]methyl]pyrazole-4-carboxamide] showed a melting point of 86 to 96 °C. Moreover, the pest or weed control at 200 ppm in data set [1] is at least 80%. Also, the pest or weed control at 200 ppm in data set [2] is at least 80%. The pest or weed control at 200 ppm with Phakopsora pachrhizi was at least 80%. The inhibition of growth at 20 ppm in data set [3] is at least 80%.
For `NC(=O)c1cnn(Cc2ccc(-c3noc(C(F)(F)F)n3)cc2)c1` [X.19, 1-[[4-[5-(trifluoromethyl)-1,2,4-oxadiazol-3-yl]phenyl]methyl]pyrazole-4-carboxamide], the pest or weed control at 200 ppm (in data set [1]; in data set [2]; with Phakopsora pachrhizi) was at least 80% throughout. In data set [3], the inhibition of growth at 20 ppm is at least 80%.
For `CON=Cc1cnn(Cc2ccc(-c3noc(C(F)(F)F)n3)cc2)c1` [X.20, N-methoxy-1-[1-[[4-[5-(trifluoromethyl)-1,2,4-oxadiazol-3-yl]phenyl]methyl]pyrazol-4-yl]methanimine], the pest or weed control at 200 ppm (in data set [1]; in data set [2]; with Phakopsora pachrhizi) was at least 80% throughout. Further, the inhibition of growth at 20 ppm in data set [3] is at least 80%.
Regarding `CCOC(=O)c1cnn(C(C)c2ccc(-c3noc(C(F)(F)F)n3)cc2)c1` (stereo not shown) [X.21, ethyl 1-[1-[4-[5-(trifluoromethyl)-1,2,4-oxadiazol-3-yl]phenyl]ethyl]pyrazole-4-carboxylate], the pest or weed control at 200 ppm (in data set [1]; in data set [2]; in the data set on Phakopsora pachrhizi) was at least 80% each time. The inhibition of growth at 20 ppm in data set [3] is at least 80%.
